In patent US20250282827A1, “LIPIDATED POLYMYXIN ANALOGUES” (priority 2021, published 2025):
Converted amounts (≈) assume the structure as drawn. Where two headings read alike, the source gives them in different places. Positions of bridges follow the written chain, without caps; N, C: chain ends. Non-standard residues stand in square brackets, D forms with d. Residues, ends and D or L forms follow the SMILES beside them. *: point of attachment. CH2CH2OBz(4-tBu) = CC(C)(C)c1ccc(C(=O)OCC*)cc1; Ethyl(2-propionyloxy) = CCC(=O)OCC*; Ethyl(2-OBz) = O=C(OCC*)c1ccccc1; Dab = NCC[C@H](N)C(=O)O; X6 = CCC(C)(C)C(=O)OCC*; X11 = O=C(OCC*)C1CC1; Mpa = O=C(O)CCS

What was measured:
P. aeruginosa ATCC 27853 = type: cell-based, Pseudomonas aeruginosa
Text: (§1) All 81 compounds prepared in Examples 2 and 3 underwent screening against a panel of Gram-negative bacterium to assess their ability to inhibit bacterial growth. […] The median value is presented.

A. baumannii ATCC 19606 = type: cell-based, Acinetobacter baumannii
Text: as §1

E. coli ATCC MS8345 = type: cell-based, Escherichia coli
Text: as §1
Expansion of the polymyxin macrocycle by substituting […]) offered little advantage in antimicrobial activity but was generally well tolerated although for A. baumanni and P. aeruginosa this was detrimental.

E. coli ATCC 25922 = type: cell-based, Escherichia coli
Text: as §1

[1] = system: K. pneumoniae ATCC 700603; type: cell-based, Klebsiella pneumoniae
Text: as §1

K. pneumoniae ATCC 33495 = type: cell-based, Klebsiella pneumoniae
Text: as §1

[2] = system: K. pneumoniae ATCC MS6671; type: cell-based, Klebsiella pneumoniae
Text: as §1

SMILES | MIC P. aeruginosa ATCC 27853 (P. aeruginosa ATCC 27853; ATCC 27853) | MIC A. baumannii ATCC 19606 (A. baumannii ATCC 19606; ATCC 19606) | MIC E. coli ATCC MS8345 (E. coli ATCC MS8345; ATCC MS8345) | MIC E. coli ATCC 25922 (E. coli ATCC 25922; ATCC 25922) | MIC K. pneumoniae ATCC 700603 ([1]; ATCC 700603) | MIC K. pneumoniae ATCC 33495 (K. pneumoniae ATCC 33495; ATCC 33495) | MIC K. pneumoniae ATCC MS6671 ([2]; ATCC MS6671) | MIC P. aeruginosa ATCC 27853 (P. aeruginosa ATCC 27853; median of triplicate) | MIC A. baumannii ATCC 19606 (A. baumannii ATCC 19606; median of triplicate) | MIC E. coli ATCC MS8345 (E. coli ATCC MS8345; colistin-resistant strain, median of triplicate) | MIC E. coli ATCC 25922 (E. coli ATCC 25922; median of triplicate) | MIC K. pneumoniae ATCC 700603 ([1]; median of triplicate) | MIC K. pneumoniae ATCC 33495 (K. pneumoniae ATCC 33495; median of triplicate) | MIC K. pneumoniae ATCC MS6671 ([2]; median of triplicate)
CC(C)C[C@@H]1NC(=O)[C@@H](Cc2ccccc2)NC(=O)[C@H](CCN)NC(=O)[C@@H](NC(=O)[C@H](CCN)NC(=O)[C@@H](NC(=O)[C@H](N)CSCCOC(=O)c2ccc(C(C)(C)C)cc2)[C@@H](C)O)CCNC(=O)[C@H]([C@@H](C)O)NC(=O)[C@H](CCN)NC(=O)[C@H](CCN)NC1=O [Compound 104] (H-[dC](CH2CH2OBz(4-tBu))T[Dab][Dab][Dab][dF]L[Dab][Dab]T; lactam 4-C) | 2 µg/mL (≈ 1.57 µM) | 4 µg/mL (≈ 3.15 µM) | 2 µg/mL (≈ 1.57 µM) | 2 µg/mL (≈ 1.57 µM) | 4 µg/mL (≈ 3.15 µM) | 2 µg/mL (≈ 1.57 µM) | >32 µg/mL |  |  |  |  |  |  | 
CC(C)C[C@@H]1NC(=O)[C@@H](Cc2ccccc2)NC(=O)[C@H](CCN)NC(=O)[C@@H](NC(=O)[C@H](CCN)NC(=O)[C@@H](NC(=O)[C@H](CCN)NC(=O)[C@@H](N)CSCCOC(=O)c2ccccc2)[C@@H](C)O)CCCCNC(=O)[C@H]([C@@H](C)O)NC(=O)[C@H](CCN)NC(=O)[C@H](CCN)NC1=O [Compound 27] (H-C(Ethyl(2-OBz))[Dab]T[Dab]K[Dab][dF]L[Dab][Dab]T; lactam 5-C) |  |  |  |  |  |  |  | >32 µg/mL | >32 µg/mL | >32 µg/mL | 1 µg/mL (≈ 0.745 µM) | 2 to 4 µg/mL | 0.5 µg/mL (≈ 0.372 µM) | >32 µg/mL
CCC(C)(C)C(=O)OCCSC[C@@H](N)C(=O)N[C@H](C(=O)N[C@@H](CCN)C(=O)N[C@H]1CCNC(=O)[C@H]([C@@H](C)O)NC(=O)[C@H](CCN)NC(=O)[C@H](CCN)NC(=O)[C@H](CC(C)C)NC(=O)[C@@H](Cc2ccccc2)NC(=O)[C@H](CCN)NC1=O)[C@@H](C)O [Compound 99] (H-[dC](X6)T[Dab][Dab][Dab][dF]L[Dab][Dab]T; lactam 4-C) | 4 µg/mL (≈ 3.31 µM) | 4 µg/mL (≈ 3.31 µM) | >32 µg/mL | 2 µg/mL (≈ 1.65 µM) | 2 µg/mL (≈ 1.65 µM) | 2 µg/mL (≈ 1.65 µM) | >32 µg/mL |  |  |  |  |  |  | 
CC(C)C[C@@H]1NC(=O)[C@@H](Cc2ccccc2)NC(=O)[C@H](CCN)NC(=O)[C@@H](NC(=O)[C@H](CCN)NC(=O)[C@@H](NC(=O)[C@H](N)CSCCOC(=O)C2CC2)[C@@H](C)O)CCNC(=O)[C@H]([C@@H](C)O)NC(=O)[C@H](CCN)NC(=O)[C@H](CCN)NC1=O [Compound 100] (H-[dC](X11)T[Dab][Dab][Dab][dF]L[Dab][Dab]T; lactam 4-C) | 4 µg/mL (≈ 3.39 µM) | 16 µg/mL (≈ 13.6 µM) | >32 µg/mL | 4 µg/mL (≈ 3.39 µM) | 4 µg/mL (≈ 3.39 µM) | 2 µg/mL (≈ 1.7 µM) | >32 µg/mL |  |  |  |  |  |  | 
CCC(=O)OCCSCCC(=O)N[C@@H](CCN)C(=O)N[C@H](C(=O)N[C@@H](CCN)C(=O)N[C@H]1CCNC(=O)[C@H]([C@@H](C)O)NC(=O)[C@H](CCN)NC(=O)[C@H](CCN)NC(=O)[C@H](CC(C)C)NC(=O)[C@@H](Cc2ccccc2)NC(=O)[C@H](CCN)NC1=O)[C@@H](C)O [Compound 59] ([Mpa](Ethyl(2-propionyloxy))[Dab]T[Dab][Dab][Dab][dF]L[Dab][Dab]T; lactam 5-C) | 2 µg/mL (≈ 1.6 µM) | 32 µg/mL (≈ 25.6 µM) | >32 µg/mL | 0.5 µg/mL (≈ 0.4 µM) | 1 µg/mL (≈ 0.799 µM) | 0.5 µg/mL (≈ 0.4 µM) | >32 µg/mL |  |  |  |  |  |  | 
